This note sets out measurements from ChEMBL document CHEMBL1201862, “PubChem BioAssay data set” (2004).

Common to all, as to assay: NCI anticancer screen, dose series, 48 h
Test [1] deals with IGROV-1.
Test [2] concerns COLO 205.
The test system of test [3] is SF-539.
For test [4], the system named is SK-MEL-2.
The subject of test [5] is NCI-H460.
Test [6] relates to RXF 393.
Test [7] relates to CAKI-1.
Test [8] has as its system HCT-15.
Test [9] deals with A549.
For test [10], the system named is HCT-116.
Test [11] deals with ACHN.
For test [12], the system named is OVCAR-5.
Test [13] has as its system OVCAR-8.
Test [14] deals with NCI-H522.
The test system of test [15] is OVCAR-3.

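Following 48 hours of exposure in 96-well plates, responses at five concentrations were used to interpolate endpoints linearly. GI50 is the concentration that inhibits growth by half.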 Active and inactive are the calls of the source. No stated cut-off is given here; in the data, active = GI50 up to about 1.1 µM and inactive = higher.

On to `Nc1nc(=O)[nH]c2c1cnn2C1CCCCO1` (centres undefined), for which the GI50 in test [1] was > 100 µM (inactive); in test [2], > 100 µM (inactive); in test [3], > 100 µM (inactive); in test [4], > 100 µM (inactive); in test [5] it was > 100 µM (inactive); in [6], 56 µM (inactive). Also, the GI50 in test [7] is > 100 µM (inactive); in test [8], greater than 100 µM; in test [9] it was > 100 µM (inactive); in [10] it was > 100 µM (inactive); in [11], > 100 µM (inactive); in test [12], 64 µM (inactive). Further, the GI50 in test [13] is > 100 µM (inactive).
As for `O=C(/C=C/c1ccc([N+](=O)[O-])cc1)c1ccc(NCc2nc3ccccc3[nH]2)cc1`, the GI50 is 4.48 µM (inactive) in test [1]; 2.07 µM (inactive) in test [2]; 2.84 µM (inactive) in test [3]; 14.9 µM (inactive) in [4]; 2.22 µM (inactive) in test [5]; 3.26 µM (inactive) in test [14]. In addition, the GI50 in [7] was 6.52 µM (inactive); in test [8] it was 2.93 µM; in test [11], 10.5 µM (inactive); in test [15] it was 3.09 µM (inactive); in test [12], 13.5 µM (inactive); in test [13], 2.68 µM (inactive).
For `CCC(C)CN1C(=O)NC(Cc2ccccc2)C1=O` (centres undefined), the GI50 in test [3], in test [4], in test [5], in [6], in [14] and in [7] was > 100 µM (inactive) in each case. Besides, the GI50 in [9], in [11], in test [12] and in test [13] was > 100 µM (inactive) in each case.
For `C=C=CC(NC(=O)c1ccccc1)(C(=O)O)C(F)(F)F` (centres undefined), the GI50 in [1], in test [2], in test [3], in test [4], in test [5] and in test [6] was > 100 µM (inactive) each time. In addition, the GI50 in test [7] was > 10 µM (inactive); in [8], greater than 100 µM; in [9], > 100 µM (inactive); in [10], > 100 µM (inactive); in test [11], > 100 µM (inactive); in [12], > 100 µM (inactive). The GI50 in test [13] is > 100 µM (inactive).
As for `COC(=O)[C@H]1N[C@@H](C(=O)OC)C23CCC[C@H]2CC[C@]1(C(OC)OC)C3`, the GI50 in test [1] was > 100 µM (inactive); in test [2], 87.7 µM (inactive); in test [3], > 100 µM (inactive); in test [4] it was > 100 µM (inactive); in test [5], > 100 µM (inactive); in [14], > 100 µM (inactive). Besides, the GI50 in test [7] was > 100 µM (inactive); in test [8], greater than 100 µM; in test [9] it was > 100 µM (inactive); in test [10], > 100 µM (inactive); in [11], > 100 µM (inactive); in [12], > 100 µM (inactive). In test [13], the GI50 was > 100 µM (inactive).
Consider `O=c1c2cc3c(=O)n(CCc4ccccc4CO)c(=O)c3cc2c(=O)n1CCc1ccccc1CO`, for which the GI50 in test [1], in test [3], in test [4], in test [5], in test [6] and in test [14] was > 100 µM (inactive) throughout. The GI50 is greater than 100 µM in [8]; > 100 µM (inactive) in test [9]; > 100 µM (inactive) in test [10]; > 100 µM (inactive) in [11]; > 100 µM (inactive) in [15]; > 100 µM (inactive) in test [13].
Consider `C#CCC1(C(=O)OCC)C(=O)c2ccccc2N(C)C1=O` (centres undefined), for which the GI50 in test [1] is > 100 µM (inactive); in test [2], > 100 µM (inactive); in [3], > 100 µM (inactive); in test [4], > 100 µM (inactive); in [5] it was > 100 µM (inactive); in [14], 12.1 µM (inactive). The GI50 is 35.6 µM (inactive) in test [7]; greater than 100 µM in test [8]; 93.5 µM (inactive) in test [11]; > 100 µM (inactive) in test [15]; > 100 µM (inactive) in [13].
As to `Nc1nc(N)c2nc(-c3ccco3)cnc2n1`, the GI50 in test [1] was 43.1 µM (inactive); in test [2], 65.6 µM (inactive); in test [3], 38.2 µM (inactive); in test [5] it was 35.3 µM (inactive); in test [6], 26.2 µM (inactive); in test [14], 50.2 µM (inactive). For the same molecule, the GI50 was 25 µM (inactive) in test [7]; greater than 100 µM in test [8]; 34.5 µM (inactive) in test [9]; 34.4 µM (inactive) in test [10]; 59.4 µM (inactive) in [11]; 56.9 µM (inactive) in test [15]. The GI50 in test [12] and in test [13] was > 100 µM (inactive) throughout.
With `C/C(CCn1[nH]c(=O)ccc1=O)=N\NC(=O)C(=O)NN`, the GI50 in test [1], in test [2], in [3], in test [4], in test [5] and in test [6] was > 100 µM (inactive) in each case. The GI50 in [14] is > 100 µM (inactive); in test [7], > 100 µM (inactive); in [8] it was greater than 100 µM; in test [9], > 100 µM (inactive); in [11], > 100 µM (inactive); in [15], > 100 µM (inactive). Moreover, the GI50 in test [12] and in [13] was > 100 µM (inactive) each time.
In the case of `COc1ccc(Cc2c3cc(OC)c(OC)cc3cc[n+]2C)cc1`, the GI50 in [1] was 38.7 µM (inactive); in test [2] it was 5.21 µM (inactive); in test [3] it was 18.7 µM (inactive); in test [4], > 29.1 µM (inactive); in test [6] it was > 25.6 µM (inactive); in [14], 19.9 µM (inactive). The GI50 is > 48.3 µM (inactive) in test [7]; greater than 31.3 µM in test [8]; 9.35 µM (inactive) in test [9]; 15 µM (inactive) in test [10]; > 29.2 µM (inactive) in test [11]; 7.28 µM (inactive) in test [15]. Also, the figures for the GI50 in [12] and in [13] were > 100 µM (inactive) and 6.85 µM (inactive), respectively.
Regarding `COC(=O)c1ccccc1NC(=O)C(=O)CC(=O)CC(c1ccccc1)c1c(O)c2ccccc2oc1=O` (centres undefined), the GI50 in test [1], in test [2], in [3], in test [4], in [5] and in test [6] was > 100 µM (inactive) in each case. Also, the GI50 in [14], in test [7], in test [9], in test [10], in test [11] and in [15] was > 100 µM (inactive) in each case. Also, the GI50 in [12] and in test [13] was > 100 µM (inactive) throughout.
`Cc1cccc(C(=O)c2cccc3ccccc23)c1C(=O)O`: the GI50 is > 100 µM (inactive) in [1]; 23.3 µM (inactive) in test [2]; > 100 µM (inactive) in [3]; > 100 µM (inactive) in [4]; > 100 µM (inactive) in test [5]; > 100 µM (inactive) in test [6]. Besides, the GI50 in test [14] was > 100 µM (inactive); in test [8] it was greater than 100 µM; in [9], > 100 µM (inactive); in [10], > 100 µM (inactive); in test [11], > 100 µM (inactive); in test [15] it was > 100 µM (inactive). In addition, the GI50 in test [12] and in test [13] was > 100 µM (inactive) each time.
With `CC12C(=CC(=O)CC1SCCS(=O)(=O)O)C(C#N)=C(N)N2c1ccc(Cl)c(Cl)c1` (centres undefined), the GI50 in [1] is > 100 µM (inactive); in test [2], > 100 µM (inactive); in [3] it was > 100 µM (inactive); in test [4], > 100 µM (inactive); in test [5] it was 10 µM (inactive); in test [6], 36.8 µM (inactive). Also, the GI50 in [14] is 36 µM (inactive); in test [7], > 100 µM (inactive); in test [8] it was greater than 100 µM; in test [9] it was > 100 µM (inactive); in [10] it was > 100 µM (inactive); in [11], > 100 µM (inactive). The GI50 in [15] and in test [13] was > 100 µM (inactive) in each case.
For the molecule `COc1cccc(/C=N/[N-]C(=S)Nc2ccccc2)c1[O-].O.[Zn+2]`, the GI50 in [1] is 52 µM (inactive); in [3], 66.4 µM (inactive); in test [4], 63.7 µM (inactive); in [5], 50.9 µM (inactive); in test [6], 35.9 µM (inactive); in test [14], 19.7 µM (inactive). Besides, the GI50 in test [7] is 87.7 µM (inactive); in test [8], 31.6 µM; in test [9], 34.1 µM (inactive); in test [11] it was 39.8 µM (inactive); in test [15], 40.5 µM (inactive); in test [12] it was > 100 µM (inactive). In [13], the GI50 is 35.5 µM (inactive).
For the molecule `COc1ccc(/C=C/c2cc(OC)c(OCc3ccccc3)c(OC)c2)cc1`, the GI50 in test [1], in test [2], in test [3], in test [4], in test [5] and in test [14] was > 100 µM (inactive) each time. Further, the GI50 is > 100 µM (inactive) in test [7]; > 100 µM (inactive) in test [9]; > 100 µM (inactive) in [10]; > 100 µM (inactive) in test [11]; > 100 µM (inactive) in test [15]; 8.99 µM (inactive) in test [12]. The GI50 in test [13] is > 100 µM (inactive).
